Laboratory results: patent US11452758B2, “Antimicrobial peptide derived from LL37 peptide and uses thereof” (INDUSTRY-ACADEMIC COOPERATION FOUNDATION, CHOSUN UNIVERSITY, priority 2018, dated 2022)
In brackets after ≈: the same amount, converted by molar mass.

Assays:
[1] = tested on: Acinetobacter baumannii KCTC 2508; test: Low vacuum scanning electron microscopy (membrane-disrupting property); type: cell-based; details: peptide at MIC concentration, 30 minutes at 37° C.
Experimental: To specifically determine the degree of antimicrobial activity of the synthesized peptides of the present invention, the influence of mother peptide LL37 and homologous peptides LL37-1, LL37-2, LL37-3 and LL37-4 on bacteria membrane, i.e., membrane-disrupting property, was determined by low vacuum scanning electron microscopy.
Specifically, Acinetobacter baumannii KCTC 2508 cells were cultured to a mid-log phase in MHB medium, and then diluted to a cell concentration of 2×10^7 cells/ml in physiological saline containing 10% MHB medium. […] After that, by using 2.5% glutaraldehyde, the bacterial cells were fixed for 30 minutes at room temperature and then for 12 hours at 4° C. After carrying out washing with buffer, the cells were fixed again with […] and dehydrated in stepwise manner by using ethanol. After the dehydration, platinum coating was carried out and the cells were observed by low vacuum scanning electron microscopy.

[2] = tested on: A. baumannii #2; type: cell-based, Acinetobacter baumannii; details: #2
Excerpt: (§1) To compare the antimicrobial activity among the peptides produced by the method of Example 1, the inventors of the present invention measured the minimal growth inhibitory concentration (MIC), which is minimum concentration of the peptide not allowing any […] of bacterial cells.
(§2) Specifically, the bacterial strains described in the following Table 2 were purchased and cultured to a mid-log phase in MHB (Mueller Hinton Broth) medium. Then, after dilution to bacterial cell concentration of 2×10^5 cells/50 μl, the cells were inoculated to a microtiter plate (NUNC, USA). Thereafter, LL37-1, LL37-2, LL37-3 or LL37-4 peptide which has been synthesized in Example 1 above was subjected to serial dilution, ½ times for each, in a 96-well plate. After adding the peptides in an amount of 50 μl to the cell plate, the cells were cultured for 18 hours at 37° C. By using a microtiter plate reader (Merck Elisa reader, Germany), the absorbance was measured at a wavelength of 600 nm to determine the MIC value of each bacterial strain. As a control group, LL37 as a mother peptide was used and subjected to the same process as above to determine the MIC value of each strain.

[3] = tested on: A. baumannii #4; type: cell-based, Acinetobacter baumannii; details: #4
Excerpt: as §1, §2

[4] = tested on: A. baumannii #11; type: cell-based, Acinetobacter baumannii; details: #11
Excerpt: as §1, §2

[5] = tested on: A. baumannii #10; type: cell-based, Acinetobacter baumannii; details: #10
Excerpt: as §1, §2

[6] = tested on: A. baumannii #5; type: cell-based, Acinetobacter baumannii; details: #5
Excerpt: as §1, §2

[7] = tested on: A. baumannii #13; type: cell-based, Acinetobacter baumannii; details: #13
Excerpt: as §1, §2

[8] = tested on: A. baumannii KCTC 2508; type: cell-based, Acinetobacter baumannii
Excerpt: as §1, §2

[9] = tested on: L. monocytogenes KCTC 3710; type: cell-based, Listeria monocytogenes; details: KCTC 3710, 18 h
Excerpt: as §1, §2

[10] = tested on: A. baumannii #10; test: Antibiofilm activity, Crystal violet staining; type: cell-based, Acinetobacter baumannii; details: 24 hours
Experimental: (§3) To compare the antimicrobial activity among the peptides produced by the method of Example 1, the inventors of the present invention measured the biofilm inhibitory concentration value of the peptide for not allowing any dissociation of bacterial cells.
(§4) Specifically, among the bacterial strains described in the above Table 2, bacteria showing the most favorable biofilm forming were cultured to a mid-log phase in a medium with suitable composition. Then, after dilution to bacterial cell concentration of 1×10^6 cells/50 μl, the cells were inoculated to a microtiter plate. Thereafter, LL37, LL37-1, LL37-2, LL37-3 or LL37-4 peptide which has been synthesized in Example 1 above was diluted, 1/10 times for each, with 10 mM phosphate buffered physiological saline (PBS) in a 96-well plate. After adding the peptide (50 μl) to each well of the plate, the cells were cultured for 24 hours at 37° C. After removing the supernatant completely, the cells were fixed with 100% methanol for 15 minutes and stained for 1 hour with Crystal violet staining solution followed by rinsing for 3 times. Then, after dissolving in 95% ethanol, the absorbance was measured at a wavelength of 595 nm by using a microtiter plate reader to determine the biofilm minimal inhibitory concentration value of each bacterial strain.

[11] = tested on: A. baumannii #5; test: Antibiofilm activity, Crystal violet staining; type: cell-based, Acinetobacter baumannii; details: 24 hours
Experimental: as §3, §4

[12] = tested on: A. baumannii KCTC 2508; test: Antibiofilm activity, Crystal violet staining; type: cell-based, Acinetobacter baumannii; details: 24 hours
Experimental: as §3, §4

[13] = tested on: S. typhimurium KCTC 1925; type: cell-based, Salmonella typhimurium; details: KCTC 1925, 18 h
Excerpt: as §1, §2

[14] = tested on: S. aureus ATCC 25923; type: cell-based, Staphylococcus aureus; details: ATCC 25923, 18 h
Excerpt: as §1, §2

[15] = tested on: Human macrophage cells (U937) infected with Acinetobacter baumannii KCTC 2508; test: Expression of inflammatory cytokines, Western blot and real time RT-PCR; type: cell-based; details: U937 infected with A. baumannii KCTC 2508, peptide added 1 hour after infection, sample after 9 hours
Experimental: To see whether or not a change in expression of inflammatory cytokines in macrophage is caused by the peptides that are prepared by the method of above Example 1, determination was made by Western blot and real time reverse transcription polymerase chain reaction.
Specifically, Acinetobacter baumannii KCTC 2508 cells were cultured to a mid-log phase in MHB medium, and then diluted to a cell concentration of 1×10^7 cells/ml in physiological saline. Human macrophage cells (U937) were then infected with the resulting cells in time-dependent manner to yield the first sample, and another macrophage cells were infected with Acinetobacter baumannii KCTC 2508 cells, which have been diluted to a concentration of 1×10^7 cells, and added with, 1 hour after the infection, mother peptide LL37 or the homologous peptide to collect the second sample after 9 hours. Both collected samples were treated with cell lysis buffer to obtain the supernatant (sup) and pellet (lysate). Thereafter, by Western blot and real time reverse transcription polymerase chain reaction, a change in the expression level of inflammatory cytokines was examined.

[16] = tested on: E. coli ATCC 25922; type: cell-based, Escherichia coli; details: ATCC 25922, 18 h
Excerpt: as §1, §2

## CC[C@H](C)[C@H](NC(=O)[C@H](CCCCN)NC(=O)[C@H](CCC(=O)O)NC(=O)[C@H](CCCCN)NC(=O)[C@H](CO)NC(=O)[C@H](CCCCN)NC(=O)[C@H](CCCNC(=N)N)NC(=O)[C@H](Cc1ccccc1)NC(=O)[C@H](Cc1ccccc1)NC(=O)[C@H](CC(=O)O)NC(=O)CNC(=O)[C@H](CC(C)C)NC(=O)[C@@H](N)CC(C)C)C(=O)NCC(=O)N[C@@H](CCCCN)C(=O)N[C@@H](CCC(=O)O)C(=O)N[C@@H](Cc1ccccc1)C(=O)N[C@@H](CCCCN)C(=O)N[C@@H](CCCNC(=N)N)C(=O)N[C@H](C(=O)N[C@H](C(=O)N[C@@H](CCC(N)=O)C(=O)N[C@@H](CCCNC(=N)N)C(=O)N[C@H](C(=O)N[C@@H](CCCCN)C(=O)N[C@@H](CC(=O)O)C(=O)N[C@@H](Cc1ccccc1)C(=O)N[C@@H](CC(C)C)C(=O)N[C@@H](CCCNC(=N)N)C(=O)N[C@@H](CC(N)=O)C(=O)N[C@@H](CC(C)C)C(=O)N[C@H](C(=O)N1CCC[C@H]1C(=O)N[C@@H](CCCNC(=N)N)C(=O)N[C@H](C(=O)N[C@@H](CCC(=O)O)C(=O)N[C@@H](CO)C(N)=O)[C@@H](C)O)C(C)C)[C@@H](C)CC)C(C)C)[C@@H](C)CC [LL37]
[1]
  membrane-disrupting property (scanning electron microscopy): disruption of bacteria membrane
[2]
  Minimal inhibitory concentration: 2 µM (≈ 8.98 µg/mL)
[3]
  Minimal inhibitory concentration: 2 µM (≈ 8.98 µg/mL)
[4]
  Minimal inhibitory concentration: 2 µM (≈ 8.98 µg/mL)
[5]
  Minimal inhibitory concentration: 2 µM (≈ 8.98 µg/mL)
[6]
  Minimal inhibitory concentration: 2 µM (≈ 8.98 µg/mL)
[7]
  Minimal inhibitory concentration: 2 µM (≈ 8.98 µg/mL)
[8]; KCTC 2508
  Minimal inhibitory concentration of antimicrobial peptide: 2 µM
[8]; KCTC 2508, 18 h
  Minimal inhibitory concentration: 2 µM (≈ 8.98 µg/mL)
[9]
  Minimal inhibitory concentration: 64 µM (≈ 288 µg/mL)
[10]; peptide 2 μM
  Biofilm forming ability: 62%
[10]; peptide 4 μM
  Biofilm forming ability: 58%
[10]; peptide 8 μM
  Biofilm forming ability: 54%
[10]; peptide 16 μM
  Biofilm forming ability: 53%
[10]; peptide 32 μM
  Biofilm forming ability: 13%
[11]; peptide 2 μM
  Biofilm forming ability: 97%
[11]; peptide 4 μM
  Biofilm forming ability: 74%
[11]; peptide 8 μM
  Biofilm forming ability: 40%
[11]; peptide 16 μM
  Biofilm forming ability: 36%
[11]; peptide 32 μM
  Biofilm forming ability: 15%
[12]; peptide 2 μM
  Biofilm forming ability: 42%
[12]; peptide 4 μM
  Biofilm forming ability: 39%
[12]; peptide 8 μM
  Biofilm forming ability: 33%
[12]; peptide 16 μM
  Biofilm forming ability: 23%
[12]; peptide 32 μM
  Biofilm forming ability: 10%
[13]
  Minimal inhibitory concentration: 32 µM (≈ 144 µg/mL)
[14]
  Minimal inhibitory concentration: 16 µM (≈ 71.9 µg/mL)
[15]
  expression level of HMGB-1 and late cytokine (IL-1b and TNF-α): has increased more
[16]
  Minimal inhibitory concentration: 32 µM (≈ 144 µg/mL)
